From patent US20250231157A1, “METHOD FOR DETERMINING THE PARTITION OF NAPHTHENIC ACIDS FROM A PRODUCTION WATER MIMICKING SYSTEM AND MIMICKING SYSTEM” (PETRÓLEO BRASILEIRO S.A. – PETROBRAS, priority 2023, published 2025)
Values joined by “and” are separate entries in the source; they are usually repeats but may differ in a detail not shown here. Identical values can stand only once.

Legend:
[1] = Partition equilibrium with addition of calcium and strontium salts to the aqueous phase; type: physicochemical; details: for Migration: salinity 3.5%
Description: The addition of salts to the reaction system is of fundamental importance when one intends to mimic field conditions. In this sense, in addition to continuing the study of the salinity effect (Example 4), the insertion of salts containing Ca^2+ and Sr^2+ ions, known to be present in seawater, was tested. To this end, the projects were based on the literature (Zheng, J. et al. Offshore produced water management: A review of current practice and challenges in harsh/Arctic environments. Mar. Pol. Bul. 2016, 104, 7-19) and four concentrations of each of the two ions were evaluated (400.0, 1200.0, 2600.0 and 9000.0 mg·L^−1), maintaining salinity at 3.5% (m·v^−1).
In short, the experimental results were generated in triplicate, using 99% NaCl to add salinity to the aqueous fraction and PA calcium chloride and PA strontium chloride to add calcium and strontium, respectively.
The addition of calcium and strontium to the reaction system, in the form of salts, aims at mimicking the real scenario in which both species are present (regardless of the salinity of the medium), especially in the well condition. This study aimed at understanding the effect (on the migration of acids to the organic phase) of this ion in the system also at concentrations higher than 10 mM. Finally, the experiments (in triplicate) with divalent strontium ions followed the same rationale.

[2] = Partition equilibrium (migration to aqueous phase) heptol/water under pressure and temperature, central composite design, potentiometric titration; type: physicochemical; details: for Migration, Predicted: model value
Description: Three multivariate experimental designs (central composite designs) were performed in which the variables pressure (up to 1 MPa) and temperature (between 25° C. and 80° C.) were considered independent variables, with the migration of three acidic species as the response factor: benzoic, pentanoic and cyclohexanepentanoic acid. For this purpose, 5 levels were defined and gave rise to 10 experiments for each acidic species (Table 4), added to two control experiments (with higher pressure and temperature, as well as in the absence of pressure and at room temperature).
The experiments were performed with constant salinity of 3.5% (m·v^−1), constant heptol fraction (70:30, for heptane and toluene), and acidic species concentration of 0.03 M for benzoic and pentanoic acid, and 0.01 M for cyclohexanepentanoic acid. The results were evaluated with 95% confidence, using a response surface to estimate the maximum observable effect in each case, provided that the mathematical correlation was equal to or greater than R^2: 0.75.

[3] = Partition equilibrium under the influence of salinity (NaCl), glass reactor, neutralization titration; type: physicochemical; details: Salinity 0 (%, m · m^−1) NaCl
[4] = Partition equilibrium in reactor pressurized with CO2, in presence and absence of alkalinity (NaHCO3, Na2CO3), back titration
Description: In the initial tests, 100 mL of heptol and 300 mL of water (with or without salinity) were used, with the addition of acidic species in the organic phase, in order to verify migration to the aqueous phase. As a rule, the system was kept under agitation at 500 rpm for 8 min, followed by rest for 10 min and, finally, collection of 50.0 mL aliquots of the aqueous phase for titrimetric analysis.
A 316 stainless steel alloy reactor (Parr®) (capacity for 600 mL and operational up to 20 MPa pressure) was used. For this purpose, a temperature range between 25° C. and 80° C. and pressure between 0.1 MPa and 1.0 MPa were used, and the reactor was pressurized with CO2. Thus, the results were compared (in terms of migration of the acidic species (%, mol) by means of back titrations) and the influence of pressure and temperature on the partition was estimated, as well as possible synergistic effects with the sources of alkalinity added to the aqueous phase.

[5] = Partition equilibrium under the influence of salinity (NaCl), glass reactor, neutralization titration; type: physicochemical
Description: The variation in salinity (and its effect on acidic species) is due to the large variation in salinity found between the portions of bottom-hole water, middle-well water and surface water. Thus, systems with salinity (i.e., NaCl) between 3.5 and 30% (m·v^−1) were tested in a glass reactor, and neutralization titration was performed (in triplicate analysis), as previously described. Furthermore, the experimental results were generated in triplicate, using 99% NaCl (Sigma-Aldrich) with five acidic species.

[6] = Control experiments: availability of the species in alkaline aqueous medium without using the reactor; type: physicochemical; details: acid solubilized directly in aqueous phase, no reactor
Description: Previously, the back titration procedure was internalized and optimized (Example 1), ensuring that the reproducibility of the measurements was adequate (standard deviation values below 10%, for example) and that the recoveries were close to what was expected based on the purity of the reagents (i.e., close to or above 90%). […] Control experiments were performed (measuring the availability of the species in an aqueous medium, without using the reactor) by solubilizing the organic acid directly in the aqueous phase and titrating a 10.0 mL aliquot; the same way, experiments were performed in the reactor based on the standardization of heptol and salinity already discussed (3.5%).

[7] = 52 °C, 0.5 MPa (experiments 9 and 10)

Migration ([1]; Absence of ions): 77.0 %, mol
Migration ([1]; Calcium 400 mg · L^−1): 90.0 %, mol
Migration ([1]; Calcium 400 mg · L^−1, listed as pentanoic acid): ~100 %, mol
Migration ([1]; Calcium 1200 mg · L^−1): 98.7 %, mol
Migration ([1]; Calcium 2600 mg · L^−1): 96.7 %, mol
Migration ([1]; Strontium 400 mg · L^−1): 100.0 %, mol
Migration ([1]; Strontium 1200 mg · L^−1): 100.0 %, mol
Migration ([1]; Strontium 2600 mg · L^−1): 100.0 %, mol
Effect of strontium ions on migration to the aqueous phase ([1]; strontium 400-2600 mg·L^−1): increase in migration
Migration, Measured ([2]; 20 °C, 0.1 MPa (experiment 12, control)): 86.6 %, mol
Migration, Increment (related to control) ([2]; 25 °C, 0.5 MPa (experiment 5)): −10.8 %, mol
Migration, Measured ([2]; 25 °C, 0.5 MPa (experiment 5)): 77.3 %, mol
Migration, Increment (related to control) ([2]; 38 °C, 0.25 MPa (experiment 1)): −13.3 %, mol
Migration, Measured ([2]; 38 °C, 0.25 MPa (experiment 1), heptol 70:30, 3.5% salinity): 75.1 %, mol
Migration, Increment (related to control) ([2]; 38 °C, 0.75 MPa (experiment 3)): −12.2 %, mol
Migration, Measured ([2]; 38 °C, 0.75 MPa (experiment 3)): 76.1 %, mol
Migration, Increment (related to control) ([2]; 52 °C, 0.1 MPa (experiment 7)): −1.5 %, mol
Migration, Measured ([2]; 52 °C, 0.1 MPa (experiment 7)): 85.3 %, mol
Migration, Increment (related to control) [2, 7]: 2.2 %, mol and 1.8 %, mol
Migration, Measured ([2]; 52 °C, 0.5 MPa (experiments 9 and 10, centre point)): 88.5 %, mol and 88.2 %, mol
Migration, Increment (related to control) ([2]; 52 °C, 1 MPa (experiment 8)): 3.1 %, mol
Migration, Measured ([2]; 52 °C, 1 MPa (experiment 8)): 89.4 %, mol
Migration, Increment (related to control) ([2]; 66 °C, 0.25 MPa (experiment 2)): −4.1 %, mol
Migration, Measured ([2]; 66 °C, 0.25 MPa (experiment 2)): 83.1 %, mol
Migration, Increment (related to control) ([2]; 66 °C, 0.75 MPa (experiment 4)): −5.2 %, mol
Migration, Measured ([2]; 66 °C, 0.75 MPa (experiment 4)): 82.2 %, mol
Migration, Increment (related to control) ([2]; 80 °C, 0.5 MPa (experiment 6)): 0.5 %, mol
Migration, Measured ([2]; 80 °C, 0.5 MPa (experiment 6)): 87.1 %, mol
Migration, Increment (related to control) ([2]; 80 °C, 1 MPa (experiment 11)): 2.5 %, mol
Migration, Measured ([2]; 80 °C, 1 MPa (experiment 11, control)): 88.8 %, mol
Migration, Predicted ([2]; 25 °C, 0.5 MPa (experiment 5)): 74.2 %, mol
Migration, Predicted ([2]; 38 °C, 0.25 MPa (experiment 1)): 79.9 %, mol
Migration, Predicted ([2]; 38 °C, 0.75 MPa (experiment 3)): 82.2 %, mol
Migration, Predicted ([2]; 52 °C, 0.1 MPa (experiment 7)): 83.6 %, mol
Migration, Predicted [2, 7]: 85.4 %, mol
Migration, Predicted ([2]; 52 °C, 1 MPa (experiment 8)): 86.3 %, mol
Migration, Predicted ([2]; 66 °C, 0.25 MPa (experiment 2)): 86.5 %, mol
Migration, Predicted ([2]; 66 °C, 0.75 MPa (experiment 4)): 86.9 %, mol
Migration, Predicted ([2]; 80 °C, 0.5 MPa (experiment 6)): 85.5 %, mol
Migration, Predicted ([2]; 80 °C, 1 MPa (experiment 11)): 85.4 %, mol
Decrease in the tendency to migrate relative to control, maximum over the design ([2]; pressure up to 1 MPa, 25-80 °C): up to 13.3 % mol
Increase in migration relative to control, maximum over the design ([2]; pressure up to 1 MPa, 25-80 °C): up to 3.1 % mol
Migration [3]: 76.7 %, mol
Migration ([4]; 25° C. and 1.0 MPa CO2, no alkalinity): 100 % mol
Migration ([4]; 80° C. and 1.0 MPa CO2, no alkalinity): 82.4 % mol
Migration ([4]; Na2CO3 + NaHCO3, 25° C. and 0.1 MPa): 61.3 % mol
Migration ([4]; Na2CO3 + NaHCO3, 25° C. and 1.0 MPa CO2): 100 % mol
Migration ([4]; Na2CO3 + NaHCO3, 80° C. and 1.0 MPa CO2): 79.9 % mol
Migration ([4]; NaHCO3, 25° C. and 0.1 MPa): 69.2 % mol
Migration ([4]; NaHCO3, 25° C. and 1.0 MPa CO2): 100 % mol
Migration ([4]; NaHCO3, 80° C. and 1.0 MPa CO2): 96.3 % mol
Migration ([4]; Reference (heptol + 3.5% NaCl), no alkalinity): 77 % mol
Salting out effect (reduction in the number of moles contained in the aqueous phase) ([5]; 30% (m·v^−1) NaCl versus tests without salinity): approximately 300%
Migration ([5]; Salinity 3.5 (%, m · m^−1) NaCl): 73.3 %, mol
Migration ([5]; Salinity 18.0 (%, m · m^−1) NaCl): 40.0 %, mol
Migration ([5]; Salinity 30.0 (%, m · m^−1) NaCl): 23.3 %, mol
Availability (reference value) ([6]; Na2CO3 + NaHCO3 (3.48×10^−5 mol)): 66.0 % mol
Availability (reference value) ([6]; NaHCO3 (3.45×10^−5 mol)): 90.7 % mol
Structure (SMILES): CCCCC(=O)O [Pentanoic Acid, pentanoic acid]
